Results taken from patent US20220002280A1, “COMPOUNDS AND METHODS OF USE” (Ferro Therapeutics, Inc., priority 2019, published 2022).
Counter-ions that a name gives are not always drawn.

Assays:
[1] = tested on: SJSA-1; assay: GPX4 inhibition assay: Ferrostatin rescue, SJSA-1; assay type: cell-based; details: Homo sapiens, SJSA-1 cells
Description: (§1) Cells (SJSA-1, 786-0 and/or A431) were seeded (5000 cells/100 μL/well) in 96-well tissue culture plate and incubated at 37° C./5% CO2 for 16-24 hours. The cells were then treated with compounds (25 μL of 5×). The compound concentrations were 10-0.0005 μM prepared in 3-fold serial dilutions with final DMSO concentration of 1%. The plates were then incubated for 24h at 37° C./5% CO2 in a moist environment. Then Alamar Blue™ reagent (final concentration 1×-12.5 μL) was added to each well and incubated for 1.5 hours at 37° C./5% CO2. The plates were read on fluorescence reader at 540 nm excitation and 590 nm emission wavelengths. The IC50 values were subsequently determined using a sigmoidal dose-response curve (variable slope) in GraphPad Prism® 5 software.
(§2) Studies have shown that lipophilic antioxidants, such as Ferrostatin, can rescue cells from GPX4 inhibition-induced ferroptosis. For instance, mesenchymal state GPX4-knockout cells can survive in the presence of Ferrostatin, however, when the supply of Ferrostatin is terminated, these cells undergo ferroptosis (see, e.g., Viswanathan et al., Nature 547:453-7, 2017). […] Accordingly, the ability of a molecule to induce ferroptotic cancer cell death, and that such ability is admonished by the addition of Ferrostatin, is clear indication that the molecule is an GPX4 inhibitor.

[2] = tested on: 786-O; assay: GPX4 inhibition assay: Ferrostatin rescue, 786-O; assay type: cell-based; details: Homo sapiens, 786-0, 786-O cells
Description: as §1, §2

[3] = tested on: A431; assay: Cell proliferation (Alamar Blue) assay, A431; assay type: cell-based, human; details: 24 h treatment
Description: (§3) A cell viability assay was performed to assess the potency of the compounds in human cancer cell lines 786-0 (renal cell carcinoma), SJSA-1 (osteosarcoma), and/or A431 (epidermoid carcinoma). Additional cell lines, such as pancreatic cancer cell lines (e.g., Panc 02.13, BxPC-3, Panc 12, Panc 02.03, Panc 6.03, PSN-1, HPAC, and Capan-1), prostate cancer cell lines (e.g., PC-3, DU145, 22Rv1, NCI-H660, BPH1, LNCaP, BM-1604, and MDA PCa 2b), etc., can be tested in a similar method.
as §1

[4] = tested on: SJSA-1; assay: Cell proliferation (Alamar Blue) assay, SJSA-1; assay type: cell-based, human; details: SJSA-1 cells, 24 h treatment
Description: as §3, §1

[5] = tested on: 786-O; assay: Cell proliferation (Alamar Blue) assay, 786-O; assay type: cell-based, human; details: 786-O cells, 24 h treatment
Description: as §3, §1

[6] = Mouse IV pharmacokinetics; assay type: in vivo, Balb/c mice; details: male, Balb/c, plasma; Mouse IV-PK (5 mg/kg)
Excerpt: (§4) Institutional Animal Ethical Committee (IAEC) of Jubilant Biosys (IAEC/JDC/2019/188R (for Mice) and IAEC/JDC/2019/189R (for Rat) nominated by CPCSEA (Committee for the Purpose of Control and Supervision of Experiments on Animals) approved the mice and rat pharmacokinetic experiments. Male Balb/c mice (˜6-8 weeks old with body weight range of 22-25 g) and male SD rats (6-8 weeks old with body weight range of 200-250 g) were procured from Vivo Biotech, Hyderabad, India. Animals were quarantined in Jubilant Biosys Animal House for a period of 7 days with a 12:12 h light: dark cycles, and prior to the study the animals were stratified as per body weight.
A) Procedure for Mice: Intravenous, oral and intraperitoneal pharmacokinetics study was done at doses of 5, 20 and 10 mg/kg respectively at dose volume of 10 mL/Kg for PO and IP while 5 mL/kg for IV route. Sparse sampling was done and at each time point three mice were used for blood sampling (˜100 μL) were collected from retro-orbital plexus at 0.083 (Only for IV), 0.25, 0.5, 1, 2, 4, 8, 10 (only for PO) and 24 h. Blood samples collected in tubes containing K2.EDTA as anticoagulant and centrifuged for 5 min at 10,000 rpm in a refrigerated centrifuge (Biofuge, Heraeus, Germany) maintained at 4° C. for plasma separation.
Group I (IV) received test compound intravenously by tail vein at 5 mg/Kg in solution formulation prepared using 30% Kolliphore EL in WFI; dose volume: 5 mL/Kg; strength: 1 mg/mL.
(§5) Blood concentration-time data of test compound was analyzed by non-compartmental method using Phoenix WinNonlin Version 8.1.

[7] = Rat IV pharmacokinetics; assay type: in vivo, SD rats; details: male, SD, plasma; Rat IV-PK (2 mg/kg)
Excerpt: as §4
B) Procedure for rat: Intravenous and oral pharmacokinetics study was done at a dose 2 and 10 mg/kg at dose volume of 2 and 10 mL/Kg. Serial blood sampling was done and at each time point (˜200 μL) were collected from retro-orbital plexus at 0.083 (only for IV), 0.25, 0.5, 1, 2, 4, 8, 10 (only for PO) and 24 h. Blood samples collected in tubes containing K2.EDTA as anticoagulant and centrifuged for 5 min at 10,000 rpm in a refrigerated centrifuge (Biofuge, Heraeus, Germany) maintained at 4° C. for plasma separation.
Group I (IV) received test compound intravenously by tail vein at 2 mg/Kg in solution formulation prepared using 30% Kolliphore EL in WFI; dose volume: 2 mL/Kg; strength: 1 mg/mL.
as §5

[8] = tested on: KP4; assay: Cell viability in KP4 (Table 4); assay type: cell-based; details: Homo sapiens, KP-4; KP4 cells
[9] = tested on: A549; assay: Counter-screen in A549 (CellTiter Glo); assay type: cell-based, human; details: Homo sapiens, A549 cells, 96 hours
Description: Selected compounds were also assayed (counter-screened) in a human lung cancer cell line, A549, a less sensitive cell line to GPX4 inhibitors, as a control to assess differential activity. Cells at a density of 800-2,000 cells/well were seeded in 96-well plates and incubated at 37° C. overnight. A series of nine different concentrations of compound stocks (500×) were created by 3-fold serial dilution in DMSO. These compounds were further diluted in culture media and then added to cells so that the final DMSO concentration was equal to 0.25% or less. After 96 hours of incubation, 50 μL of CellTiter Glo reagent (Promega) was added to each well and luminescence was measured after 10 minutes using EnVision (PerkinElmer). RSL3 (a prototype GPX4 inhibitor, also known as RSL-3) was used as a reference compound titrated from top concentration of up to 30 μM. All compounds were tested initially from 30 µM as the top concentration in duplicates (range of 4.6 nM-30 μM). […] Luminescence from cells treated with DMSO alone was set as Max and % of inhibition was calculated as follows: Inhibition %=(Max-Sample value)/Max*100. Data was analyzed using XL-fit software (ID Business Solutions Ltd.). IC50, relative IC50, or % of top inhibition was calculated.

[10] = 2 μM Ferrostatin, read-out: SJSA-1 (IC50, μM) 2 μM Ferrostatin
[11] = 2 μM Ferrostatin, read-out: 786-O (IC50, μM) 2 μM Ferrostatin
[12] = Homo sapiens, A-431, A431 cells
[13] = without Ferrostatin, read-out: SJSA-1 (IC50, μM) Without Ferrostatin
[14] = without Ferrostatin, read-out: 786-O (IC50, μM) Without Ferrostatin

SMILES: C#CC(=O)N1[C@@H](c2ccc(C(=O)NC3CC3)cc2)c2ccc(OC)cc2C[C@@H]1C [Compound 4, N-cyclopropyl-4-((1S,3S)-6-methoxy-3-methyl-2-propioloyl-1,2,3,4-tetrahydroisoquinolin-1-yl)benzamide]
- IC50 [1, 10]: 3.56 µM
- IC50 [2, 11]: 5.73 µM

SMILES: COc1ccc2c(c1)C[C@H](C)N(C(=O)CCl)[C@H]2c1ccc(C(=O)NC2CC2)cc1 [Compound 5, 4-((1S,3S)-2-(2-chloroacetyl)-6-methoxy-3-methyl-1,2,3,4-tetrahydroisoquinolin-1-yl)-N-cyclopropylbenzamide]
- IC50 [1, 10]: > 10 µM
- IC50 [2, 11]: > 10 µM

SMILES: COc1ccc2c(c1)C[C@H](C)N(C(=O)CCl)[C@H]2c1ccc(F)cc1 [Compound 8]
- IC50 [3, 12]: 7.9 µM
- IC50 ([4]; Homo sapiens): 0.183 µM
- IC50 [1, 10]: > 10 µM
- IC50 [1, 13]: 0.183 µM
- IC50 [2, 11]: > 10 µM
- IC50 [2, 14]: 0.181 µM
- IC50 ([5]; Homo sapiens, 786-0, 24 h): 0.181 µM

SMILES: C#CC(=O)N1[C@@H](c2ccc(F)cc2)c2ccc(OC)cc2C[C@@H]1C [Compound 9]
- IC50 [3, 12]: 4.9 µM
- IC50 ([4]; Homo sapiens): 0.436 µM
- IC50 [1, 13]: 0.436 µM
- IC50 [2, 11]: > 10 µM
- IC50 [2, 14]: 0.223 µM
- IC50 ([5]; Homo sapiens, 786-0, 24 h): 0.223 µM

SMILES: C#CC(=O)N1[C@@H](CCCC)Cc2cc(OC)ccc2[C@@H]1c1ccc(F)cc1 [Compound 12, 1-((1S,3S)-3-butyl-1-(4-fluorophenyl)-6-methoxy-3,4-dihydroisoquinolin-2(1H)-yl)prop-2-yn-1-one]
- IC50 [3, 12]: 3.5 µM
- IC50 ([4]; Homo sapiens): 0.025 µM
- AUC [6]: 181 ng·h/mL
- Cmax [6]: 882 ng/mL
- Vd [6]: 19.5 L/kg
- clearance [6]: 454 mL/min/kg
- half-life [6]: 0.5 h
- IC50 ([5]; Homo sapiens, 786-0, 24 h): 0.014 µM

SMILES: C#CC(=O)N1[C@@H](CCCC)Cc2cc(OC)ccc2[C@@H]1c1ccc(NC23CC4CC(CC(C4)C2)C3)cc1 [Compound 28, 1-((1S,3S)-1-(4-(((3R,5R,7R)-adamantan-1-yl)amino)phenyl)-3-butyl-6-methoxy-3,4-dihydroisoquinolin-2(1H)-yl)prop-2-yn-1-one]
- IC50 [3, 12]: 2.9 µM
- AUC [7]: 1080 ng·h/mL
- Cmax [7]: 3530 ng/mL
- Vd [7]: 8.2 L/kg
- clearance [7]: 30 mL/min/kg
- half-life [7]: 3.15 h
- IC50 ([4]; Homo sapiens): 0.016 µM
- AUC [6]: 1640 ng·h/mL
- Cmax [6]: 5450 ng/mL
- Vd [6]: 14.7 L/kg
- clearance [6]: 49 mL/min/kg
- half-life [6]: 3.5 h
- IC50 ([5]; Homo sapiens, 786-0, 24 h): 0.004 µM

SMILES: COC(=O)c1ccc([C@@H]2c3ccc(OC)cc3C[C@H](C(=O)OC)N2C(=O)CCl)cc1 [Compound 41]
- IC50 [8]: 0.042 µM
- IC50 [9]: 1.31 µM

SMILES: COC(=O)c1ccc([C@H]2c3sccc3C[C@H](C(=O)OC)N2C(=O)CCl)cc1 [Compound 42]
- IC50 [8]: 0.0618 µM
- IC50 [9]: 5.05 µM

SMILES: COC(=O)c1ccc([C@@H]2c3sccc3C[C@H](C(=O)OC)N2C(=O)CCl)cc1 [Compound 43]
- IC50 [8]: 0.525 µM
- IC50 [9]: 10.3 µM

SMILES: COc1cc2c(cc1OC)[C@H](c1ccc(N3CCOCC3)cc1)N(C(=O)CCl)[C@@H](C)C2 [Compound 44]
- IC50 ([4]; Homo sapiens): 0.599 µM
- IC50 [9]: 6.58 µM
- IC50 ([5]; Homo sapiens, 786-0, 24 h): 0.592 µM

SMILES: COc1cc2c(cc1OC)[C@@H](c1ccc(N3CCOCC3)cc1)N(C(=O)CCl)[C@@H](C)C2 [Compound 45]
- IC50 ([4]; Homo sapiens): > 3 µM
- IC50 [9]: 4.74 µM
- IC50 ([5]; Homo sapiens, 786-0, 24 h): 5.89 µM

SMILES: COc1ccc2c(c1)C[C@H](C)N(C(=O)CCl)[C@@H]2c1ccc(N2CCOCC2)cc1 [Compound 46]
- IC50 ([4]; Homo sapiens): 2.56 µM
- IC50 [9]: 3.83 µM

SMILES: COc1ccc2c(c1)C[C@H](C)N(C(=O)CCl)[C@H]2c1ccc(N2CCOCC2)cc1 [Compound 47]
- IC50 ([4]; Homo sapiens): 0.329 µM
- IC50 [9]: 6.58 µM
- IC50 [5]: 0.259 µM

SMILES: C#CC(=O)N1[C@@H](CCCC)Cc2cc(OC)ccc2[C@@H]1c1ccc(CNC23CC(C2)C3)cc1 [Compound 100]
- IC50 [3, 12]: 4.06 µM
- IC50 ([4]; Homo sapiens): 0.021 µM
- IC50 ([5]; Homo sapiens, 786-0, 24 h): 0.013 µM

SMILES: C#CC(=O)N1[C@@H](CCCC)Cc2cc(OC)ccc2[C@@H]1c1ccc(NC23CC4CC(CC(C4)C2)C3)cc1 [Compound 101, 1-((1S,3S)-1-(4-(((3R,5R,7R)-adamantan-1-yl)amino)phenyl)-3-butyl-6-methoxy-3,4-dihydroisoquinolin-2(1H)-yl)prop-2-yn-1-one hydrochloride]
- IC50 ([3]; A431 cells, hydrochloride): 6.87 µM
- IC50 ([4]; hydrochloride): 0.0115 µM
- IC50 ([5]; hydrochloride): 0.008 µM

SMILES: C#CC(=O)N1[C@@H](CCCC)Cc2cc(OC)ccc2[C@@H]1c1ccc(NC(=O)C2CCC2)cc1 [Compound 102, N-(4-((1S,3S)-3-butyl-6-methoxy-2-propioloyl-1,2,3,4-tetrahydroisoquinolin-1-yl)phenyl)cyclobutanecarboxamide]
- IC50 [3, 12]: 6.13 µM
- IC50 ([4]; Homo sapiens): 0.021 µM
- IC50 ([5]; Homo sapiens, 786-0, 24 h): 0.021 µM
